Values of other authors, collected in patent US7741370B2, “Double salts of (−)-hydroxycitric acid and a process for preparing the same” (Laila Impex, priority 2004, dated 2010).

What was measured:
[1] = free acid form, forming a lactone; liquid form unstable during storage
[2] = prior-art salt (US 5,783,603), statement in words

O=C(O)CC(O)(C(=O)O)C(O)C(=O)O (single isomer, unassigned; (-)) [(−)-hydroxycitric acid]
stability [1]: unstable

potassium salt of HCA
hygroscopicity [2]: hygroscopic
